According to PubChem BioAssay (NCI):
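Where inhibition never reached the appropriate level, the endpoint shown equals the highest concentration tested. Otherwise, values were interpolated linearly from a five-concentration, 48-hour dose response in 96-well plates. GI50 marks 50% less growth. TGI: total growth inhibition.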

Legend:
Test in all cases: NCI-60 cell line screen, 48 h
786-0 renal = system: 786-0 renal
A498 renal = system: A498 renal
A549 NSCLC = system: A549 NSCLC
ACHN renal = system: ACHN renal
BT-549 breast = system: BT-549 breast
CAKI-1 renal = system: CAKI-1 renal
CCRF-CEM leukemia = system: CCRF-CEM leukemia
COLO 205 colon = system: COLO 205 colon
DU-145 prostate = system: DU-145 prostate
HCC-2998 colon = system: HCC-2998 colon
HCT-116 colon = system: HCT-116 colon
HCT-15 colon = system: HCT-15 colon
HOP-92 NSCLC = system: HOP-92 NSCLC
HS 578T breast = system: HS 578T breast
HT29 colon = system: HT29 colon
K-562 leukemia = system: K-562 leukemia
KM12 colon = system: KM12 colon
LOX IMVI melanoma = system: LOX IMVI melanoma
M14 melanoma = system: M14 melanoma
MCF7 breast = system: MCF7 breast
MDA-MB-231 breast = system: MDA-MB-231 breast
MDA-MB-435 = system: MDA-MB-435
MOLT-4 leukemia = system: MOLT-4 leukemia
NCI-H226 lung = system: NCI-H226 lung
NCI-H23 lung = system: NCI-H23 lung
NCI-H460 lung = system: NCI-H460 lung
NCI-H522 lung = system: NCI-H522 lung
NCI/ADR-RES ovarian = system: NCI/ADR-RES ovarian
OVCAR-3 ovarian = system: OVCAR-3 ovarian
OVCAR-4 ovarian = system: OVCAR-4 ovarian
OVCAR-5 ovarian = system: OVCAR-5 ovarian
OVCAR-8 ovarian = system: OVCAR-8 ovarian
PC-3 prostate = system: PC-3 prostate
SF-268 CNS = system: SF-268 CNS
SK-MEL-2 melanoma = system: SK-MEL-2 melanoma
SK-MEL-28 melanoma = system: SK-MEL-28 melanoma
SK-OV-3 ovarian = system: SK-OV-3 ovarian
SN12C renal = system: SN12C renal
SNB-19 CNS = system: SNB-19 CNS
SNB-75 CNS = system: SNB-75 CNS
SW-620 colon = system: SW-620 colon
T-47D breast = system: T-47D breast
TK-10 renal = system: TK-10 renal
U251 CNS = system: U251 CNS
UACC-257 melanoma = system: UACC-257 melanoma
UO-31 renal = system: UO-31 renal

**Q.** COc1cc(/C=C/c2cc(/C=C/c3ccc(O)c(OC)c3)n(C(N)=O)n2)ccc1O was tested. Which GI50 (786-0 renal) did it give?
**A.** 372 nM

**Q.** And the TGI (786-0 renal)?
**A.** 1370 nM

**Q.** What about the GI50 (A498 renal) of the same compound?
**A.** 1120 nM

**Q.** And the TGI (A498 renal)?
**A.** 3480 nM

**Q.** And the GI50 (A549 NSCLC)?
**A.** 491 nM

**Q.** What about the TGI (A549 NSCLC) of the same compound?
**A.** 11300 nM

**Q.** And the GI50 (ACHN renal)?
**A.** 342 nM

**Q.** And the TGI (ACHN renal)?
**A.** 10200 nM

**Q.** What about the GI50 (BT-549 breast) of the same compound?
**A.** 395 nM

**Q.** And the TGI (BT-549 breast)?
**A.** 1580 nM

**Q.** And the GI50 (CAKI-1 renal)?
**A.** 368 nM

**Q.** And the TGI (CAKI-1 renal)?
**A.** 10000 nM

**Q.** And the GI50 (CCRF-CEM leukemia)?
**A.** 295 nM

**Q.** What about the TGI (CCRF-CEM leukemia) of the same compound?
**A.** > 100000 nM

**Q.** And the GI50 (COLO 205 colon)?
**A.** 2360 nM

**Q.** What about the TGI (COLO 205 colon) of the same compound?
**A.** 6030 nM

**Q.** And the GI50 (DU-145 prostate)?
**A.** 482 nM

**Q.** And the TGI (DU-145 prostate)?
**A.** 1630 nM

**Q.** What about the GI50 (HCC-2998 colon) of the same compound?
**A.** 1560 nM

**Q.** And the TGI (HCC-2998 colon)?
**A.** 11200 nM

**Q.** What about the GI50 (HCT-116 colon) of the same compound?
**A.** 314 nM

**Q.** What about the TGI (HCT-116 colon) of the same compound?
**A.** 1110 nM

**Q.** And the GI50 (HCT-15 colon)?
**A.** 312 nM

**Q.** And the TGI (HCT-15 colon)?
**A.** 2010 nM

**Q.** And the GI50 (HOP-92 NSCLC)?
**A.** 861 nM

**Q.** What about the TGI (HOP-92 NSCLC) of the same compound?
**A.** 4400 nM

**Q.** What about the GI50 (HS 578T breast) of the same compound?
**A.** 259 nM

**Q.** And the TGI (HS 578T breast)?
**A.** 2520 nM

**Q.** What about the GI50 (HT29 colon) of the same compound?
**A.** 2180 nM

**Q.** And the TGI (HT29 colon)?
**A.** 5280 nM

**Q.** What about the GI50 (K-562 leukemia) of the same compound?
**A.** 350 nM

**Q.** And the TGI (K-562 leukemia)?
**A.** > 100000 nM

**Q.** What about the GI50 (KM12 colon) of the same compound?
**A.** 351 nM

**Q.** What about the TGI (KM12 colon) of the same compound?
**A.** 1860 nM

**Q.** What about the GI50 (LOX IMVI melanoma) of the same compound?
**A.** 493 nM

**Q.** And the TGI (LOX IMVI melanoma)?
**A.** 2750 nM

**Q.** What about the GI50 (M14 melanoma) of the same compound?
**A.** 283 nM

**Q.** And the TGI (M14 melanoma)?
**A.** 1030 nM

**Q.** What about the GI50 (MCF7 breast) of the same compound?
**A.** 314 nM

**Q.** What about the TGI (MCF7 breast) of the same compound?
**A.** 1450 nM

**Q.** And the GI50 (MDA-MB-231 breast)?
**A.** 655 nM

**Q.** And the TGI (MDA-MB-231 breast)?
**A.** 12800 nM

**Q.** And the GI50 (MDA-MB-435)?
**A.** 102 nM

**Q.** And the TGI (MDA-MB-435)?
**A.** 346 nM

**Q.** And the GI50 (MOLT-4 leukemia)?
**A.** 365 nM

**Q.** And the TGI (MOLT-4 leukemia)?
**A.** > 100000 nM

**Q.** What about the GI50 (NCI-H226 lung) of the same compound?
**A.** 1380 nM

**Q.** What about the TGI (NCI-H226 lung) of the same compound?
**A.** 4400 nM

**Q.** And the GI50 (NCI-H23 lung)?
**A.** 647 nM

**Q.** And the TGI (NCI-H23 lung)?
**A.** 3530 nM

**Q.** What about the GI50 (NCI-H460 lung) of the same compound?
**A.** 318 nM

**Q.** And the TGI (NCI-H460 lung)?
**A.** 1300 nM

**Q.** And the GI50 (NCI-H522 lung)?
**A.** 252 nM

**Q.** And the TGI (NCI-H522 lung)?
**A.** 964 nM

**Q.** And the GI50 (NCI/ADR-RES ovarian)?
**A.** 435 nM

**Q.** What about the TGI (NCI/ADR-RES ovarian) of the same compound?
**A.** 4440 nM

**Q.** And the GI50 (OVCAR-3 ovarian)?
**A.** 427 nM

**Q.** And the TGI (OVCAR-3 ovarian)?
**A.** 2190 nM

**Q.** What about the GI50 (OVCAR-4 ovarian) of the same compound?
**A.** 570 nM

**Q.** What about the TGI (OVCAR-4 ovarian) of the same compound?
**A.** 5030 nM

**Q.** And the GI50 (OVCAR-5 ovarian)?
**A.** 1760 nM

**Q.** And the TGI (OVCAR-5 ovarian)?
**A.** > 100000 nM

**Q.** And the GI50 (OVCAR-8 ovarian)?
**A.** 543 nM

**Q.** What about the TGI (OVCAR-8 ovarian) of the same compound?
**A.** 22800 nM

**Q.** What about the GI50 (PC-3 prostate) of the same compound?
**A.** 439 nM

**Q.** And the TGI (PC-3 prostate)?
**A.** 2310 nM

**Q.** And the GI50 (SF-268 CNS)?
**A.** 439 nM

**Q.** And the TGI (SF-268 CNS)?
**A.** 4830 nM

**Q.** And the GI50 (SK-MEL-2 melanoma)?
**A.** 400 nM

**Q.** And the TGI (SK-MEL-2 melanoma)?
**A.** 1130 nM

**Q.** What about the GI50 (SK-MEL-28 melanoma) of the same compound?
**A.** 609 nM

**Q.** And the TGI (SK-MEL-28 melanoma)?
**A.** 3260 nM

**Q.** What about the GI50 (SK-OV-3 ovarian) of the same compound?
**A.** 392 nM

**Q.** What about the TGI (SK-OV-3 ovarian) of the same compound?
**A.** 1930 nM

**Q.** What about the GI50 (SN12C renal) of the same compound?
**A.** 585 nM

**Q.** What about the TGI (SN12C renal) of the same compound?
**A.** 5940 nM

**Q.** What about the GI50 (SNB-19 CNS) of the same compound?
**A.** 691 nM

**Q.** What about the GI50 (SNB-75 CNS) of the same compound?
**A.** 311 nM

**Q.** And the TGI (SNB-75 CNS)?
**A.** 1260 nM

**Q.** What about the GI50 (SW-620 colon) of the same compound?
**A.** 398 nM

**Q.** And the TGI (SW-620 colon)?
**A.** 1820 nM

**Q.** And the GI50 (T-47D breast)?
**A.** 507 nM

**Q.** What about the TGI (T-47D breast) of the same compound?
**A.** 3680 nM

**Q.** What about the GI50 (TK-10 renal) of the same compound?
**A.** 1300 nM

**Q.** What about the TGI (TK-10 renal) of the same compound?
**A.** 4730 nM

**Q.** What about the GI50 (U251 CNS) of the same compound?
**A.** 526 nM

**Q.** What about the TGI (U251 CNS) of the same compound?
**A.** 10500 nM

**Q.** What about the GI50 (UACC-257 melanoma) of the same compound?
**A.** 1530 nM

**Q.** What about the TGI (UACC-257 melanoma) of the same compound?
**A.** 9030 nM

**Q.** What about the GI50 (UO-31 renal) of the same compound?
**A.** 370 nM

**Q.** What about the TGI (UO-31 renal) of the same compound?
**A.** 1690 nM
